Test results: patent US4001428A, “Cyclopropane derivatives and use thereof as cell membrane mobility agents” (Polymer Sciences Corporation, priority 1974, dated 1977)

What was measured:
[1] = Retained activity of sonicated suspension; assay type: physicochemical; conditions: dispersed in 150 mM NaCl by sonication, ca. 2 min
Description: (§1) Blood from the brachial vein of adult hens was mixed with heparin (as anticoagulant), centrifuged and the buffy coat removed. The erythrocytes were washed twice with 150 mM NaCl and once with buffer containing 76 mM sodium acetate, 70 mM NaCl, 1 mM CaCl2 and 100 mg/cc Dextran (MW 70,000) Pharmacia, Uppsala, Sweden (pH 5.7). The buffer is similar to but simpler than that used in a similar procedure by Lucy et al. The cells were resuspended in the same buffer and mixed with an equal volume of a suspension of the mobility agent A2 C dispersed in 150 mM NaCl by sonication. […] The final concentrations of A2 C used ranged between 0.06μl to 0.5 μl/cc containing 2-3 × 10^8 cells, 0.5 mM CaCl2, 38 mM sodium acetate, 110 mM NaCl and dextran (50 mg/cc). Cell suspensions were incubated at the desired temperature, mixed gently every 5 - 15 minutes and aliquots removed at intervals for viewing and photography at room temperature.

hen red blood cells = test: Fusion of hen red blood cells; assay type: cell-based; conditions: 0.125 to 0.5 μl/cc of cell suspension, 37° C
Description: as §1

neurotransmitter release = test: Neurotransmitter release from cells; assay type: cell-based
Excerpt: Many intracellular agents are released from cells at rates which are below that desirable for optimum bilogical activity. […] For example, the use of the membrane mobility agents of the invention on brain tissue would lead to more efficient response to pharmacologically-active compounds and stimuli (such as electrical stimuli) on such brain tissue.

mastocytoma = test: Agglutination of mastocytoma cells by wheat germ agglutinin and cap formation; assay type: cell-based
Excerpt: Some malignant cells, like mastocytoma, agglutinate in the presence of wheat germ agglutinin.

lymphocytes = test: Viability/cytotoxicity of lymphocytes, dye-exclusion test with trypan blue; assay type: cell-based; conditions: 60 minutes incubation, FIG. 1
Description: The viability of the cells thus incubated was evaluated by the dye-exclusion test, using trypan blue.

rabbit lymphocytes = test: Cap formation on lymphocytes treated with fluorescent antibody (membrane mobility); assay type: cell-based
Description: Cap formation was followed on rabbit lymphocytes preincubated for various periods of time with one of the compounds, then treated with fluorescent antibody. At least 20 minutes preincubation with the aqueous dispersion of agent A2 C were required to produce a change in the observed rate from that of the control and between 1 and 2 h incubation was required for maximum response. A 1-h period was utilized in most experiments.
FIG. 2 illustrates the rate of cap formation in lymphocytes treated with A2 C. In each of these experiments rabbit blood was anticoagulated with heparin (200 I.U./cm^3) and diluted with NaCl-phosphate buffer, pH 7.3 (137 mM NaCl-1.8 mM KH2 PO4 -8.2 mM Na2 HPO4) to 40% of original volume. Diluted blood was layered over sodium metrizoate (Nyegaard, Oslo, Norway)-Ficoll (Pharmacia, Uppsala, Sweden) mixture (containing 6.3% Ficoll and 10% sodium metrizoate), and centrifuged for 30 min. at 400 g at 25° C. Cells collected from the interphase contained over 80% lymphocytes. Cells were centrifuged, washed 3 times in buffer containing albumin and resuspended in the same or A2 C buffer. (A2 C was suspended in buffer (with Vortex) and albumin added). Final concentrations: lymphocytes 10^7 cells/cm^3.A2 C 0.02-0.2 μl/cm^3, 0.2% albumin, 5 mM glucose. Usual sample volume: 0.2 cm^3. The cell suspension was incubated at 22° or 24° C for 60 min. […] Expt I: 0.1 1 A 2 C per cm^3; (log concn -3.7); temp. 22 C. Expt II: 0.02 and 0.2 A2 C per cm^3; temp. 24° C. Expt III: 0.2 A2 C per cm^3; temp. 24° C.

glutathione = conditions: within cells; cited from earlier work

CCCCCCCCC1CC1CCCCCCCC(=O)OCCOCCOC (stereo not shown) [A2 C, 2-(2-methoxy)-ethoxyethyl 8-(2-n-octylcyclopropyl octanoate]
activity of sonicated suspension over time [1]: remains active for several hours
extent of erythrocytes eventually involved in fusion (hen red blood cells): most of the erythrocytes
fusion of erythrocytes, degree of fusion (hen red blood cells): increasing degrees of fusion, starting with binucleated, trinucleated and tetranucleated cells and proceeding to multi-nucleated cells
rounding and swelling of the cells (hen red blood cells): rounding and swelling of the cells
neurotransmitter release (neurotransmitter release): augmented by a small factor
cap formation on mastocytoma cells (mastocytoma): cause caps to form
extent of agglutination (mastocytoma; wheat germ agglutinin): diminish the extent of agglutination
cytotoxicity on lymphocytes relative to concentration affecting mobility (lymphocytes): toxic at concentrations considerably above that at which maximum effect on mobility was observed
rate of cap formation in treated cells, increase over controls (rabbit lymphocytes; 0.02-0.2 μl/cm^3, 60 min incubation at 22° or 24° C, FIG. 2): ≤ 50%
effect of inherent "high" or "low" capacity for cap formation on the effects of the agent (rabbit lymphocytes; FIG. 2): does not alter the effects produced by the mobility agent
initial state of treated cells, extrapolation to zero cap formation time (rabbit lymphocytes; FIG. 2): might be initially more "prepared" to form caps than the control cells
preincubation time required to produce a change in the observed rate of cap formation from that of control (rabbit lymphocytes; aqueous dispersion of agent, rabbit lymphocytes): At least 20 minutes

CCCCCCCCC1CC1CCCCCCCCOCCOCCOC (stereo not shown) [A2 CE, 2-(2-methoxy)-ethoxyethyl 8-(2-n-octylcyclopropyl)-n-octyl ether]
effect on cap formation / effectiveness as membrane mobility agent (rabbit lymphocytes; standard incubation period, FIGS. 3 and 4): less than the ester A1 C in effect

CCCCCCCCCCCCCCCCCC(=O)OCCOCCOC [A2 S, 2-(2-methoxy)-ethoxyethyl octadecanoate, reference compound]
membrane mobility activity (active/inactive) (rabbit lymphocytes; classification of compounds of Table I): inactive

CCCCCCCCC1CC1CCCCCCCC(=O)OCCOCCOCCOC (stereo not shown) [A3 C, 2-[2-(2-methoxy)-ethoxy]ethoxyethyl 8-(2-n-octycyclopropyl)-octanoate]
cytotoxicity on lymphocytes relative to concentration affecting mobility (lymphocytes): toxicity with amounts close to that at which an effect on mobility was seen

CN1CCN(C(=O)N=NC(=O)N2CCN(C)CC2)CC1 [DIP, diazene dicarboxylic acid bis(N'-methylpiperazide)]
oxidation of intracellular glutathione (glutathione): oxidizes the glutathione within cells to glutathione disulfide
